Values joined by “and” are separate entries in the source; they are usually repeats but may differ in a detail not shown here. Equal values may be shown once. “Also recorded” adds a separate entry of the source. Read-outs that look alike come from different tables or passages of the source.
Key:
[1] = tested on: human embryonic kidney 293 cells (HEK-293)
P. aeruginosa LysRS [2] = target: T1, P. aeruginosa LysRS (Pseudomonas aeruginosa, UniProt Q9HXU0); test: SPA-based tRNA aminoacylation assay; format: biochemical
T1 sequence (Q9HXU0 1-501): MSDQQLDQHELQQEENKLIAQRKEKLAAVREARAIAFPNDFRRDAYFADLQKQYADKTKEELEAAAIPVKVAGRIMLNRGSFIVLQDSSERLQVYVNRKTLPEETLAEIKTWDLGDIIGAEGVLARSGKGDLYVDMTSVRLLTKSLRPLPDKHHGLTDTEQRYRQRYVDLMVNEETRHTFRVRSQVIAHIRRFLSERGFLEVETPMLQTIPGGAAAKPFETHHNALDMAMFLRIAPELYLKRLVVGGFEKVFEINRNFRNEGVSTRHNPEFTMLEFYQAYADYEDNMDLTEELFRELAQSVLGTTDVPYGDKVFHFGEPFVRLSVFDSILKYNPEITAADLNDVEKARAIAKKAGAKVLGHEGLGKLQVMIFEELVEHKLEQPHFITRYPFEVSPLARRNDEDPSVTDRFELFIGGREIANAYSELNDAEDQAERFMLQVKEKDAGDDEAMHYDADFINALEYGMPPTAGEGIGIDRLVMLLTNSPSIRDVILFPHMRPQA

[3] = tested on: gram-positive bacterial cultures; settings: cited from earlier work
M. catarrhalis = test: Time-kill kinetic assay; format: cell-based, Moraxella catarrhalis; settings: 4×MIC, 0 to 24 h
P. aeruginosa LysRS [4] = target: T1, P. aeruginosa LysRS; test: Binding mode; format: biochemical; settings: for mechanism of inhibition with respect to ATP: IC50 at ATP 25 to 1000 μM, amino acid constant; for mechanism of inhibition with respect to ATP / mechanism of inhibition with respect to lysine: LysRS 0.01 μM; for mechanism of inhibition with respect to lysine: IC50 at lysine 25 to 300 μM, ATP 2.5 mM
[5] = tested on: human embryonic kidney 293 cells (HEK-293); test: MTT cytotoxicity assay; settings: HEK-293, MTT, 25 to 400 μg/mL, 24 h
eukaryotic LysRS = settings: cited from earlier work
P. aeruginosa LysRS [6] = target: T1, P. aeruginosa LysRS; test: ATP:PPi exchange reaction, substrate kinetics; settings: substrate varied, other substrate held at 2 mM; LysRS 0.1 μM

In the case of `C=CC1=C(C)/C(=C/c2[nH]c(Cc3[nH]c(/C=C4\NC(=O)C(C)=C4C=C)c(C)c3CCC(=O)O)c(CCC(=O)O)c2C)NC1=O` [BM01D09, bilirubin], the “CC50 relative to MICs against susceptible bacteria” value [1] is given as 6-20 fold, the IC50 (P. aeruginosa LysRS [2]) is given as 17 µM and the “inhibition of growth of gram-positive bacterial cultures” value [3] is given as “inhibitory”. The “global mode of inhibition (time-kill)” value (M. catarrhalis) was “bacteriostatic”, the Ki (P. aeruginosa LysRS [4]) was 3.5 µM and the “mechanism of inhibition with respect to ATP” value (P. aeruginosa LysRS [4]) was “competing with ATP; also recorded: IC50 also increased; also recorded: competitive inhibition”. The “mechanism of inhibition with respect to ATP” value (P. aeruginosa LysRS [4]; listed as bilirubin) was “competitive with ATP”, the “mechanism of inhibition with respect to lysine” value (P. aeruginosa LysRS [4]) was “no change in the IC50” and the “mechanism of inhibition with respect to lysine” value (P. aeruginosa LysRS [4]; listed as bilirubin) was “noncompetitive with lysine”.
In the case of `S=C(N/N=C1\CCCc2c1[nH]c1ccc(C3CCCCC3)cc21)Nc1ccccc1` [BT06F11, 1-[(~›E‹)-(6-cyclohexyl-2,3,4,9-tetrahydrocarbazol-1-ylidene)amino]-3-phenylthiourea], the “toxicity to human cell growth (in words)” value [5] is reported as “not toxic at any concentration tested; also recorded: not observed to be toxic”, the “global mode of inhibition (time-kill)” value (M. catarrhalis) is reported as “bactericidal; also recorded: inhibited growth by killing the bacteria” and the “mechanism of inhibition with respect to ATP” value (P. aeruginosa LysRS [4]) is reported as “mechanism other than substrate competition; also recorded: noncompetitive; also recorded: not observed to be competitive”. For the same molecule, the “mechanism of inhibition with respect to lysine” value (P. aeruginosa LysRS [4]) was “mechanism other than substrate competition; also recorded: noncompetitive; also recorded: not observed to be competitive”.
For `O=C(CCCCCCCCC(=O)N/N=C/c1ccc([N+](=O)[O-])o1)N/N=C/c1ccc([N+](=O)[O-])o1` [BT08F04, ~›N‹,~›N‹′-bis[(~›E‹)-(5-nitrofuran-2-yl)methylideneamino]decanediamide], the “global mode of inhibition (time-kill)” value (M. catarrhalis) was “bactericidal; also recorded: inhibited growth by killing the bacteria”, the “mechanism of inhibition with respect to ATP” value (P. aeruginosa LysRS [4]) was “competitive with ATP; also recorded: competitive inhibition” and the “mechanism of inhibition with respect to lysine” value (P. aeruginosa LysRS [4]) was “uncompetitive with the amino acid”. It also gave a Ki (P. aeruginosa LysRS [4]; read-out: mean Ki, calculated from IC50 values determined at 75 μM lysine and 2.5 mM ATP, multiple determinations) of 3.4 µM.
In the case of `C[C@H]1CCC[C@H](C[C@H]2Cc3cc(O)cc(O)c3C(=O)O2)O1` [cladosporin], the “inhibition of eukaryotic LysRS (in words)” value (eukaryotic LysRS) is given as “potent ATP competitive inhibitor”.
With `NCCCC[C@H](N)C(=O)O` [lysine] the “kcat^obs” value (P. aeruginosa LysRS [6]) was 13 s⁻¹ and 13.3 s⁻¹.
